Measurements taken from patent US20220362215A1, “THERAPEUTIC OR PROPHYLACTIC AGENT FOR CHRONIC KIDNEY DISEASE CONTAINING PYRAZOLE-AMIDE COMPOUND” (JAPAN TOBACCO INC., priority 2018, published 2022).

How the values were obtained:
[1] = tested on: pyruvate dehydrogenase kinase (PDHK); settings: as described in patent document 1 (WO 2014/142290); cited from earlier work
[2] = tested on: saline-loaded SDT-fatty rats; 5/6 nephrectomized rats; assay: disease model animals exhibiting CKD-like renal disorder and decreased renal function (saline-loaded SDT-fatty rat model; 5/6 nephrectomized rat model); format: in vivo; settings: oral administration in feed
Experimental: Experimental Example 1: Suppressive effects of compound A on urinary protein excretion and renal disorder by oral administration of monohydrate of compound A in saline-loaded SDT-fatty rat model
In saline-loaded Spontaneously Diabetic Torii fatty (SDI-fatty) rats, suppressive effects of compound A on urinary protein excretion and renal disorder were evaluated. The evaluation was performed by reference to non-patent document 1. As the experiment animal, 6-week-old male SDI-fatty rats (CLEA Japan, Inc.) were used. A normal powder feed (CRF-1 powder, Oriental Yeast. Co., ltd.) containing 0.005 w/w % of a monohydrate of compound A as a free form of compound A was prepared. […]
For urine, after measuring the urine volume, the protein concentration in the urine was measured by the absorbance at wavelength 590 nm using a total protein quantification kit (TONEIN-TP, Otsuka Pharmaceutical Co., Ltd.). Amount of the urinary protein excretion (mg/6 hours) was calculated from the urine volume and protein concentration. […]
The mean and standard deviation of urinary protein excretion for each group were calculated, and the results thereof are shown in FIG. 1. […]
In 5/6 nephrectomized rats, suppressive effects of compound A on urinary protein excretion and renal disorder were evaluated. […]

SMILES: CC(C)(O)CCOc1cc(-c2cnn(C(C)(C)C(N)=O)c2)c2c(c1)[C@@](O)(C(F)(F)F)c1ccccc1-2 [compound A, 2-{4-[(9R)-9-hydroxy-2-(3-hydroxy-3-methylbutyloxy)-9-(trifluoromethyl)-9H-fluoren-4-yl]-1H-pyrazol-1-yl}-2-methylpropanamide]
- pyruvate dehydrogenase kinase (PDHK) inhibitory activity [1]: inhibitory activity
- severity of the disease [2]: significantly reduces the severity of the disease
